# “Also recorded” adds a separate entry of the source.
# Tests used:
# [1] = Isothermal calorimetry (ITC) of peptide binding to low molecular weight HA
# Method: (§1) The binding of soluble peptide 15-1 to HA was next evaluated by isothermal calorimetry (ITC), to estimate a binding constant for the peptide (FIG. 2, the two lines represent two independent determinations in the figure). A buffered solution of 0.9 mM low molecular weight HA (10 kD average molecular weight) was injected into to a 0.6 mM peptide 15-1 solution. […] This peptide (and the scrambled control) have been further characterized in biological systems.
# prostate tumor cells = test: In vivo growth of subcutaneously injected, peptide-pretreated tumor cells; set-up: species or system NOD.CB17 SCID mice; settings: cells pretreated with 50 micromolar peptide, tumors harvested after 28 days
# Method: Studies have also been performed to determine if peptide 15-1 can inhibit tumor growth in a more complex microenvironment (FIG. 5). One hundred thousand tumor cells pretreated with 50 micromolar peptide 15-1 were injected subcutaneously into NOD.CB17 SCID mice. Twenty eight days later the mice were euthanized and the tumors harvested and analyzed.
# MDA-MB-231 cells = test: Scratch wound assay, breast cancer cell migration; assay type: cell-based, human; settings: 30 ug/ml, 24 hrs, versus scrambled control peptide
# Method: A confluent monolayer of MDA-MB-231 cells were scratched using a pipette tip. Cells were incubated in medium containing either peptide 15-1 (STMMSRSHKTRSHHV) or scrambled control peptide (HKSVSRHTSMRHSTM) (30 ug/ml). After 24 hrs, cells that migrated into the scratch were counted.
# [2] = system: Prostate tumor PC3M-LN4 cells; test: Methylcellulose assay, anchorage-independent growth of prostate tumor cells with peptide; assay type: cell-based; settings: 50 micromolar peptide; PC3M-LN4 in methylcellulose; 7 days
# Method: A methylcellulose assay was adapted to evaluate anchorage-independent growth of prostate tumor cells in vitro. This assay offers advantages over agarose since the gels can be easily solubilized, allowing for recovery and quantification/biochemical characterization of cells at the end of the experiment. Prostate tumor PC3M-LN4 cells which synthesize large amounts of HA grow in this assay to form large multicellular colonies. Cells were recovered and counted after 7 days of incubation.
# Fifteen thousand PC3M-LN4 cells were seeded into methylcellulose in the presence of 50 micromolar of the HA binding peptide 15-1 or scrambled peptide. Each peptide was mixed with PC3M-LN4 cells prior to culturing these cells in methylcellulose (FIG. 4). Culturing these cells in the presence of 50 micromolar peptide 15-1 inhibits anchorage-independent growth by 80%, which is highly statistically significant (FIG. 4).
# [3] = Isothermal calorimetry (ITC) of peptide binding to high molecular weight HA; settings: high molecular weight HA used instead of fragmented HA
# Source text: as §1, with “figure).” for “figure). A buffered solution of 0.9 mM low molecular weight HA (10 kD average molecular weight) was injected into to a 0.6 mM peptide 15-1 solution.”
# MDA-MB 231 cells = test: Methylcellulose assay, anchorage independent growth of breast cancer cells; assay type: cell-based, human; settings: MDA-MB 231 in methylcellulose; 30 ug/ml; one week; versus scrambled control peptide
# Method: MDA-MB 231 cells were grown in Methylcellulose containing either peptide 15-1 (STMMSRSHKTRSHHV) or scrambled control peptide (HKSVSRHTSMRHSTM) (30 ug/ml). One week later, cells were counted.
# [4] = system: Rhamm null (Rh−/−) fibroblasts; test: Scratch wound assay, Rhamm null fibroblast migration; assay type: cell-based; settings: with HA
# Method: (§2) Scratch wound assays with Rhamm null and wildtype fibroblast cells were used to evaluate the biological properties of peptide 15-1.
# (§3) Scratch wound assays are commonly used to assess the effects of drugs and drug candidates on cellular migration associated with wound closing. In a typical scratch wound assay, cells are plated to confluence in a multiwell plate. A single scratch wound is created in each well. The plate is then imaged at fixed time intervals. Cell number in the area of the scratch wound can be quantified to evaluate the characteristics of wound closing in the presence of pharmacological agents.
# (§4) The lack of HA induced migration was reversed by re-expression of Rhamm (FIG. 3a).
# [5] = system: wild-type dermal fibroblast cells; test: Scratch wound assay, wild-type fibroblast migration; assay type: cell-based; settings: migration stimulated by 30-mer HA
# Method: as §2, §3, §4
# The scratch wound assay was also used to determine the ability of various sizes of HA oligomers to promote migration of wild-type dermal fibroblast cells (FIGS. 8a and 8b).
"interaction with HA ([1]; low molecular weight HA (10 kD average), same conditions as peptide 15-1)","Kd ([1]; 0.9 mM low molecular weight HA (10 kD average) injected into 0.6 mM peptide solution, estimated, read-out: binding constant (Kd)) [µM]",interaction with high molecular weight HA [3],Sequence,tumor growth (prostate tumor cells),scratch wound induced migration of human breast cancer cells (MDA-MB-231 cells),inhibition of anchorage-independent growth [2] [%],anchorage independent growth of human breast cancer cells (MDA-MB 231 cells),inhibition of migration of Rhamm null cells [4],inhibition of HA stimulated migration of wildtype cells [5]
did not interact with HA,,,"HKSVSRHTSMRHSTM [scrambled peptide, scrambled counterpart of peptide 15-1 used as a control, reference compound]",,,,,,
,0.1,greatly reduced,STMMSRSHKTRSHHV [peptide 15-1],decrease in tumor growth,reduces scratch wound induced migration,80,reduce anchorage independent growth,resistant to the inhibitory effects,sensitive to the inhibitory effects; also recorded: inhibited

# — US20100290989A1, “COMPOSITIONS AFFECTING HYALURONIC ACID MEDIATED ACTIVITY” (LONDON HEALTH SCIENCES CENTRE RESEARCH INC., priority 2007, published 2010)
